# Experimental data taken from ChEMBL document CHEMBL5241112, “Insights into the recent progress in the medicinal chemistry of pyranopyrimidine analogs” (RSC Med Chem, 2022).
# Tests used:
# [1] = Antioxidant activity assessed as DPPH radical scavenging activity at 12 ug incubated for 30 mins by spectrophotometric analysis; assay type: functional; settings: dose 12.0 µg
# [2] = system: Staphylococcus aureus; assay: Antibacterial activity against Staphylococcus aureus NCIM 2654 assessed as diameter of inhibition zone incubated for 24 hrs by agar well diffusion method; assay type: functional
# [3] = system: Bacillus subtilis; assay: Antibacterial activity against Bacillus subtilis assessed as diameter of inhibition zone; assay type: functional
# [4] = system: Salmonella typhimurium; assay: Antibacterial activity against Salmonella typhimurium assessed as diameter of inhibition zone; assay type: functional, Salmonella enterica subsp. enterica serovar Typhimurium
# [5] = biological target: Urease (Canavalia ensiformis, UniProt P07374); assay: Inhibition of jack bean urease by phenol red method
# [6] = Antioxidant activity assessed as H2O2 radical scavenging activity; assay type: functional
# [7] = Antioxidant activity assessed as hydroxyl radical scavenging activity incubated for 5 mins by spectrophotometric analysis; assay type: functional; design: concentration or dose not given beside the values
# [8] = organism: Capra hircus; assay: Inhibition of goat lens AR at 100 uM incubated for 10 mins in presence of NADPH by spectroscopic analysis
# [9] = Antioxidant activity assessed as DPPH radical scavenging activity incubated for 20 mins by spectrophotometric analysis; assay type: functional; design: concentration or dose not given beside the values
# [10] = system: Aspergillus ochraceus; assay: Antifungal activity against Aspergillus ochraceus assessed as diameter of inhibition zone by disc diffusion method; assay type: functional
# [11] = system: Penicillium chrysogenum; assay: Antifungal activity against Penicillium chrysogenum assessed as diameter of inhibition zone by disc diffusion method; assay type: functional
# [12] = Antioxidant activity assessed as NO radical scavenging activity; assay type: functional
# [13] = system: Staphylococcus aureus; assay: Antibacterial activity against Staphylococcus aureus assessed as diameter of inhibition zone; assay type: functional
# [14] = system: Pseudomonas aeruginosa; assay: Antimicrobial activity against Pseudomonas aeruginosa ATCC 27853 assessed as diameter of inhibition zone at 20 mg/ml incubated for 24 hrs by disk diffusion method; assay type: functional; settings: read-out: DIZ
# [15] = system: Klebsiella pneumoniae; assay: Antimicrobial activity against Klebsiella pneumoniae UC57 assessed as diameter of inhibition zone at 20 mg/ml incubated for 24 hrs by disk diffusion method; assay type: functional; settings: read-out: DIZ
# [16] = system: Escherichia coli; assay: Antibacterial activity against Escherichia coli assessed as diameter of inhibition zone; assay type: functional
# [17] = system: Escherichia coli; assay: Antimicrobial activity against Escherichia coli ATCC 14169 assessed as diameter of inhibition zone at 20 mg/ml incubated for 24 hrs by disk diffusion method; assay type: functional; settings: read-out: DIZ
# [18] = system: Bacillus cereus; assay: Antimicrobial activity against Bacillus cereus ATCC14579 assessed as diameter of inhibition zone at 20 mg/ml incubated for 24 hrs by disk diffusion method; assay type: functional; settings: read-out: DIZ
# [19] = system: Staphylococcus aureus; assay: Antimicrobial activity against Staphylococcus aureus NCTC7447 assessed as diameter of inhibition zone at 20 mg/ml incubated for 24 hrs by disk diffusion method; assay type: functional; settings: read-out: DIZ
# [20] = system: MCF7; assay: cells; assay type: functional, cell-based; settings: Homo sapiens, MCF7, 96 h
# [21] = system: HCT-116; assay: Anticancer activity against human HCT-116 cells assessed as reduction in cell viability incubated for 96 hrs by MTT assay; assay type: functional, cell-based; settings: HCT-116, 96 h
# [22] = system: Staphylococcus aureus; assay: Antimicrobial activity against Staphylococcus aureus assessed as diameter of inhibition zone at 1 mg/ml incubated for 48 hrs by agar disk diffusion method; assay type: functional; settings: read-out: DIZ
# [23] = system: Pseudomonas aeruginosa; assay: Antimicrobial activity against Pseudomonas aeruginosa assessed as diameter of inhibition zone at 1 mg/ml incubated for 48 hrs by agar disk diffusion method; assay type: functional; settings: read-out: DIZ
# [24] = system: Escherichia coli; assay: Antimicrobial activity against Escherichia coli assessed as diameter of inhibition zone at 1 mg/ml incubated for 48 hrs by agar disk diffusion method; assay type: functional; settings: read-out: DIZ
# [25] = system: Bacillus cereus; assay: Antimicrobial activity against Bacillus cereus assessed as diameter of inhibition zone at 1 mg/ml incubated for 48 hrs by agar disk diffusion method; assay type: functional; settings: read-out: DIZ
# [26] = system: Klebsiella pneumoniae; assay: Antimicrobial activity against Klebsiella pneumoniae assessed as diameter of inhibition zone at 1 mg/ml incubated for 48 hrs by agar disk diffusion method; assay type: functional; settings: read-out: DIZ
# [27] = system: Penicillium chrysogenum; assay: Antifungal activity against Penicillium chrysogenum assessed as diameter of inhibition zone at 1 mg/ml incubated for 72 to 91 hrs by agar disk diffusion method; assay type: functional; settings: time 72-91 hrs, read-out: DIZ
# [28] = system: MCF7; assay: cells; settings: Homo sapiens, MCF7, 48 h
# [29] = system: HeLa; assay: Anticancer activity against human HeLa cells assessed as reduction in cell viability incubated for 48 hrs by MTT assay; assay type: functional, cell-based
# [30] = system: Escherichia coli; assay: Antibacterial activity against Escherichia coli assessed as bacterial growth inhibition by broth microdilution method; assay type: functional
# [31] = system: Staphylococcus aureus; assay: Antibacterial activity against Staphylococcus aureus assessed as bacterial growth inhibition by broth microdilution method; assay type: functional
# [32] = system: Pseudomonas aeruginosa; assay: Antibacterial activity against Pseudomonas aeruginosa assessed as bacterial growth inhibition by broth microdilution method; assay type: functional
# [33] = system: Klebsiella pneumoniae; assay: Antibacterial activity against Klebsiella pneumoniae assessed as bacterial growth inhibition by broth microdilution method; assay type: functional
# Urease, sequence (P07374 whole entry): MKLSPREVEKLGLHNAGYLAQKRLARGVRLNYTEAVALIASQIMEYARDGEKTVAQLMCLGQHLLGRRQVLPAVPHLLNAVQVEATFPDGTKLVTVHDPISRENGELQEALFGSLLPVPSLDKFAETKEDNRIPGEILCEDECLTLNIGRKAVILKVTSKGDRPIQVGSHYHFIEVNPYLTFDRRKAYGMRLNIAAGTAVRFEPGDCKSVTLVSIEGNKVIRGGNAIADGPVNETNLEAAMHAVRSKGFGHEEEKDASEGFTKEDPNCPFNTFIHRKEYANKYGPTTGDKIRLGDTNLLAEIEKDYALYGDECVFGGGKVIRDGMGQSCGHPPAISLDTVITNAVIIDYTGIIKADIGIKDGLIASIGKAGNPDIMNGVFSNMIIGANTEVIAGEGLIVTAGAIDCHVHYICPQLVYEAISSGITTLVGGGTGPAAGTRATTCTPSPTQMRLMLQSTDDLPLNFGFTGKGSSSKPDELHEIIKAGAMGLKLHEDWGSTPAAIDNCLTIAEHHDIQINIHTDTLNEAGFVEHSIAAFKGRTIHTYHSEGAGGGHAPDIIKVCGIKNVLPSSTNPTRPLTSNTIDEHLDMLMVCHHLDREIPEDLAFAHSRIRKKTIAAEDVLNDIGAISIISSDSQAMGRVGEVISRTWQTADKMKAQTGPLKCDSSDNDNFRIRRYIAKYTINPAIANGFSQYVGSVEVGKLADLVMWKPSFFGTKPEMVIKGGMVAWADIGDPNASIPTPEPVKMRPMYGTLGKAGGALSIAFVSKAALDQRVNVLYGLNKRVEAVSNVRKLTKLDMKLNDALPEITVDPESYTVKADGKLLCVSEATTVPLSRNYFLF
structure (smiles),measurement,setting,value
Cc1n[nH]c2c1C(c1cccc([N+](=O)[O-])c1)c1c([nH]c(=O)[nH]c1=O)O2 (stereo not drawn),Activity,[1],90.3%
same,diameter of the inhibition zone (DIZ),[2],12 mm
Cc1ccc(C2C(C#N)=C(N)Oc3[nH]c(=O)[nH]c(=O)c32)cc1 (stereo not drawn),diameter of the inhibition zone (DIZ),[3],10 mm
same,diameter of the inhibition zone (DIZ),[4],8 mm
same,IC50,[5],71.9 µM
CCOc1ccc(C2C(C#N)=C(N)Oc3cc(O)ccc32)cc1 (stereo not drawn),IC50,[6],53.54 µg/mL
O=c1[nH]c2c(c(=O)[nH]1)Oc1c(c(=O)oc3ccccc13)C2c1cccc([N+](=O)[O-])c1 (stereo not drawn),Activity,[7],54.3%
same,inhibition,[8],59%
same,Activity,[9],59.1%
Cc1n[nH]c2c1C(c1cc([N+](=O)[O-])ccc1O)c1c([nH]c(=O)[nH]c1=O)O2 (stereo not drawn),Activity,[1],89.1%
Brc1ccc2c3c(ccc2c1)Oc1ncn2nc(-c4ccccc4)nc2c1C3,diameter of the inhibition zone (DIZ),[10],17 mm
same,diameter of the inhibition zone (DIZ),[11],13 mm
COc1ccc(C2c3[nH]c(=O)[nH]c(=O)c3Oc3c2c(=O)oc2ccccc32)cc1 (stereo not drawn),Activity,[7],54.3%
same,inhibition,[8],44%
same,Activity,[9],59.1%
Nc1ncnc2c1C(c1cc(Cl)ccc1O)c1ccc(O)cc1O2 (stereo not drawn),IC50,[12],50.32 µg/mL
O=c1[nH]c2c(c(=O)[nH]1)Oc1c(c(=O)oc3ccccc13)C2c1ccccc1Cl (stereo not drawn),Activity,[7],67.2%
same,inhibition,[8],46%
same,Activity,[9],72.4%
Cc1n[nH]c2c1C(/C=C/c1ccccc1)c1c([nH]c(=O)[nH]c1=O)O2 (stereo not drawn),Activity,[1],90.3%
same,diameter of the inhibition zone (DIZ),[2],16 mm
COc1ccc(C2c3c(ncn(C)c3=N)Oc3ccc4cc(Br)ccc4c32)cc1 (stereo not drawn),diameter of the inhibition zone (DIZ),[10],17 mm
same,diameter of the inhibition zone (DIZ),[11],13 mm
N#CC1=C(N)Oc2[nH]c(=O)[nH]c(=O)c2C1c1cccc([N+](=O)[O-])c1 (stereo not drawn),diameter of the inhibition zone (DIZ),[3],12 mm
same,diameter of the inhibition zone (DIZ),[13],14 mm
same,zone of inhibition at 20000 µg/mL,[14],11 mm
same,diameter of the inhibition zone (DIZ),[4],14 mm
same,zone of inhibition at 20000 µg/mL,[15],6 mm
same,diameter of the inhibition zone (DIZ),[16],10 mm
same,zone of inhibition at 20000 µg/mL,[17],11 mm
same,zone of inhibition at 20000 µg/mL,[18],14 mm
same,IC50,[5],98.9 µM
same,zone of inhibition at 20000 µg/mL,[19],7 mm
O=c1c(O)c(-c2ccc(O)c(O)c2)oc2cc(O)cc(O)c12,inhibition,[8],92%
Cc1n[nH]c2c1C(c1ccccc1O)c1c([nH]c(=O)[nH]c1=O)O2 (stereo not drawn),diameter of the inhibition zone (DIZ),[2],14 mm
N#CC1=C(N)Oc2[nH]c(=O)[nH]c(=O)c2C1c1ccc(Br)cc1 (stereo not drawn),diameter of the inhibition zone (DIZ),[3],14 mm
same,diameter of the inhibition zone (DIZ),[13],18 mm
same,zone of inhibition at 20000 µg/mL,[14],4 mm
same,diameter of the inhibition zone (DIZ),[4],16 mm
same,zone of inhibition at 20000 µg/mL,[15],3 mm
same,diameter of the inhibition zone (DIZ),[16],12 mm
same,zone of inhibition at 20000 µg/mL,[17],6 mm
same,zone of inhibition at 20000 µg/mL,[18],4 mm
same,IC50,[5],51.3 µM
same,zone of inhibition at 20000 µg/mL,[19],12 mm
Nc1nn(-c2cc([N+](=O)[O-])ccc2[N+](=O)[O-])c2c1Oc1[nH]c(=O)[nH]c(=O)c1C2c1cccs1 (stereo not drawn),IC50,[20],3.17 µM
same,IC50,[21],2.8 µM
COC(=O)C1=C(N)Oc2[nH]c(=S)[nH]c(=O)c2C1c1ccc(OC)cc1 (stereo not drawn),zone of inhibition at 1000 µg/mL,[22],16 mm
same,zone of inhibition at 1000 µg/mL,[23],16 mm
same,zone of inhibition at 1000 µg/mL,[24],15 mm
same,zone of inhibition at 1000 µg/mL,[25],19 mm
same,zone of inhibition at 1000 µg/mL,[26],18 mm
same,zone of inhibition at 1000 µg/mL,[27],12 mm
Nc1nc(S)nc2c1Oc1[nH]c(=O)[nH]c(=O)c1C2c1cccs1 (stereo not drawn),IC50,[20],2.65 µM
same,IC50,[21],2.76 µM
COc1ccc(C2c3c(nc[nH]c3=O)Oc3ccc4cc(Br)ccc4c32)cc1 (stereo not drawn),diameter of the inhibition zone (DIZ),[10],17 mm
same,diameter of the inhibition zone (DIZ),[11],13 mm
O=C1Nc2c(c(=O)oc3ccccc23)C(c2cccc(O)c2)N1 (stereo not drawn),IC50,[28],38 µM
same,IC50,[29],90 µM
CN1C(=O)C2C(c3ccccc3)C(C#N)=C(N)OC2N(C)C1=O (stereo not drawn),IC50,[5],98.8 µM
Cn1c2c(c(=O)n(C)c1=O)C(c1ccc(O)cc1)C(C#N)=C(N)O2 (stereo not drawn),IC50,[5],108 µM
N#CC1=C(N)Oc2[nH]c(=O)[nH]c(=O)c2C1c1ccc(Cl)cc1Cl (stereo not drawn),IC50,[5],19.5 µM
CCO/C=N/C1=C(C#N)C(c2ccccc2OC)c2c(n(C)c(=O)n(C)c2=O)O1 (stereo not drawn),MIC,[30],6.25 µg/mL
same,MIC,[31],6.25 µg/mL
same,MIC,[32],6.25 µg/mL
same,MIC,[33],6.25 µg/mL
Cc1nc(O)c2c(n1)Oc1[nH]c(=O)[nH]c(=O)c1C2c1cccs1 (stereo not drawn),IC50,[20],4.48 µM
same,IC50,[21],2.76 µM
